Experimental data as given in US7456167B2, “Cyclopropyl fused indolobenzazepine HCV NS5B inhibitors” (Bristol-Myers Squibb Company, priority 2006, dated 2008).
Read-outs that look alike come from different tables or passages of the source.

Legend:
[1] = biological target: T1, HCV NS5B RdRp genotype 1b (Hepatitis C virus genotype 1b, UniProt Q9WMX2); test: Modified HCV NS5B RdRp enzyme assay (preincubation protocol); assay type: biochemical
T1 construct: The protein was expressed with an 18 amino acid C-terminal truncation to enhance the solubility; made in house; host or cells: E. coli BL21(DE3)
Procedure: HCV NS5B RdRp cloning, expression, and purification. The cDNA encoding the NS5B protein of HCV, genotype 1b, was cloned into the pET21a expression vector. The protein was expressed with an 18 amino acid C-terminal truncation to enhance the solubility. The E. coli competent cell line BL21(DE3) was used for expression of the protein. Cultures were grown at 37° C. for ˜4 hours until the cultures reached an optical density of 2.0 at 600 nm. The cultures were cooled to 20° C. and induced with 1 mM IPTG. Fresh ampicillin was added to a final concentration of 50 μg/ml and the cells were grown overnight at 20° C.
Cell pellets (3 L) were lysed for purification to yield 15-24 mgs of purified NS5B. The lysis buffer consisted of 20 mM Tris-HCl, pH 7.4, 500 mM NaCl, 0.5% triton X-100, 1 mM DTT, 1 mM EDTA, 20% glycerol, 0.5 mg/ml lysozyme, 10 mM MgCl2, 15 ug/ml deoxyribonuclease I, and Complete TM protease inhibitor tablets (Roche). After addition of the lysis buffer, frozen cell pellets were resuspended using a tissue homogenizer. To reduce the viscosity of the sample, aliquots of the lysate were sonicated on ice using a microtip attached to a Branson sonicator. The sonicated lysate was centrifuged at 100,000×g for 1 hr at 4° C. and filtered through a 0.2 μm filter unit (Corning).
The protein was purified using three sequential chromatography steps: Heparin sepharose CL-6B, polyU sepharose 4B, and Hitrap SP sepharose (Pharmacia). The chromatography buffers were identical to the lysis buffer but contained no lysozyme, deoxyribonuclease I, MgCl2 or protease inhibitor and the NaCl concentration of the buffer was adjusted according to the requirements for charging the protein onto the column. Each column was eluted with a NaCl gradient which varied in length from 5-50 column volumes depending on the column type. After the final chromatography step, the resulting purity of the enzyme is >90% based on SDS-PAGE analysis. The enzyme was aliquoted and stored at −80° C.
Standard HCV NS5B RdRp enzyme assay. HCV RdRp genotype 1b assays were run in a final volume of 60 μl in 96 well plates (Costar 3912). The assay buffer is composed of 20 mM Hepes, pH 7.5, 2.5 mM KCl, 2.5 mM MgCl2, 1 mM DTT, 1.6 U RNAse inhibitor (Promega N2515), 0.1 mg/ml BSA (Promega R3961), and 2% glycerol. All compounds were serially diluted (3-fold) in DMSO and diluted further in water such that the final concentration of DMSO in the assay was 2%. HCV RdRp genotype 1b enzyme was used at a final concentration of 28 nM. A polyA template was used at 6 nM, and a biotinylated oligo-dT12 primer was used at 180 nM final concentration. Template was obtained commercially (Amersham 27-4110). Biotinylated primer was prepared by Sigma Genosys. 3H-UTP was used at 0.6 μCi (0.29 μM total UTP). Reactions were initiated by the addition of enzyme, incubated at 30° C. for 60 min, and stopped by adding 25 μl of 50 mM EDTA containing SPA beads (4 μg/μl, Amersham RPNQ 0007). Plates were read on a Packard Top Count NXT after >1 hr incubation at room temperature.
Modified HCV NS5B RdRp enzyme assay. A modified enzyme assay was performed essentially as described for the standard enzyme assay except for the following: The biotinylated oligo dT12 primer was precaptured on streptavidin-coated SPA beads by mixing primer and beads in assay buffer and incubating at room temperature for one hour. Unbound primer was removed after centrifugation. The primer-bound beads were resuspended in 20 mM Hepes buffer, pH 7.5 and used in the assay at final concentrations of 20 nM primer and 0.67 μg/μl beads. Order of addition in the assay: enzyme (14 nM) was added to diluted compound followed by the addition of a mixture of template (0.2 nM), 3H-UTP (0.6 μCi, 0.29 μM), and primer-bound beads, to initiate the reaction; concentrations given are final. Reactions were allowed to proceed for 4 hours at 30° C.
IC50 values for compounds were determined using seven different [I]. […]

[2] = test system: HCV replicon cells; test: HCV replicon FRET assay; assay type: cell-based; details: Hepatitis C virus
From the text: FRET Assay Preparation. To perform the HCV FRET screening assay, 96-well cell culture plates were used. The FRET peptide (Anaspec, Inc.) (Taliani et al., Anal. Biochem. 1996, 240, 60-67) contains a fluorescence donor, EDANS, near one end of the peptide and an acceptor, DABCYL, near the other end. The fluorescence of the peptide is quenched by […] resonance energy transfer (RET) between the donor and the acceptor, but as the NS3 protease cleaves the peptide the products are released from RET quenching and the fluorescence of the donor becomes apparent. The assay reagent was made as follows: 5× cell Luciferase cell culture lysis reagent from Promega (#E153A) diluted to 1× with dH2O, NaCl added to 150 mM final, the FRET peptide diluted to 20 uM final from a 2 mM stock.
To prepare plates, HCV replicon cells, with or without a Renilla luciferase reporter gene, were trypsinized and placed into each well of a 96-well plate with titrated test compounds added in columns 3 through 12; columns 1 and 2 contained a control compound (HCV protease inhibitor), and the bottom row contained cells without compound. The plates were then placed in a CO2 incubator at 37° C.
Assays. Subsequent to addition of the test compounds described above (FRET Assay Preparation), at various times the plate was removed and Alamar blue solution (Trek Diagnostics, #00-100) was added per well as a measure of cellular toxicity. After reading in a Cytoflour 4000 instrument (PE Biosystems), plates were rinsed with PBS and then used for FRET assay by the addition of 30 ul of the FRET peptide assay reagent described above (FRET Assay Preparation) per well. The plate was then placed into the Cytoflour 4000 instrument which had been set to 340 excite/490 emission, automatic mode for 20 cycles and the plate read in a kinetic mode. Typically, the signal to noise using an endpoint analysis after the reads was at least three-fold. Alternatively, after Alamar blue reading, plates were rinsed with PBS, 50 ul of DMEM (high glucose) without phenol red was added and plates were then used for luciferase assay using the Promega Dual-Glo Luciferase Assay System.
Compound analysis was determined by quantification of the relative HCV replicon inhibition and the relative cytotoxicity values. To calculate cytoxicity values, the average Alamar Blue fluorescence signals from the control wells were set as 100% non-toxic. The individual signals in each of the compound test wells were then divided by the average control signal and multiplied by 100% to determine […]. To calculate the HCV replicon inhibition values, an average background value was obtained from the two wells containing the highest amount of HCV protease inhibitor at the end of the assay period. These numbers were similar to those obtained from naïve Huh-7 cells.
The background numbers were then subtracted from the average signal obtained from the control wells and this number was used as 100% activity. The individual signals in each of the compound test wells were then divided by the averaged control values after background subtraction and multiplied by 100% to determine percent activity. EC50 values for a protease inhibitor titration were calculated as the concentration which caused a 50% reduction in FRET or luciferase activity. The two numbers generated for the compound plate, percent cytoxicity and percent activity were used to determine compounds of interest for further analysis.

[3] = HCV NS5B RdRp genotype 1b, preincubation protocol, read-out: IC50
[4] = HCV replicon cells, FRET assay, read-out: EC50

T1 sequence (Q9WMX2 2420-2992): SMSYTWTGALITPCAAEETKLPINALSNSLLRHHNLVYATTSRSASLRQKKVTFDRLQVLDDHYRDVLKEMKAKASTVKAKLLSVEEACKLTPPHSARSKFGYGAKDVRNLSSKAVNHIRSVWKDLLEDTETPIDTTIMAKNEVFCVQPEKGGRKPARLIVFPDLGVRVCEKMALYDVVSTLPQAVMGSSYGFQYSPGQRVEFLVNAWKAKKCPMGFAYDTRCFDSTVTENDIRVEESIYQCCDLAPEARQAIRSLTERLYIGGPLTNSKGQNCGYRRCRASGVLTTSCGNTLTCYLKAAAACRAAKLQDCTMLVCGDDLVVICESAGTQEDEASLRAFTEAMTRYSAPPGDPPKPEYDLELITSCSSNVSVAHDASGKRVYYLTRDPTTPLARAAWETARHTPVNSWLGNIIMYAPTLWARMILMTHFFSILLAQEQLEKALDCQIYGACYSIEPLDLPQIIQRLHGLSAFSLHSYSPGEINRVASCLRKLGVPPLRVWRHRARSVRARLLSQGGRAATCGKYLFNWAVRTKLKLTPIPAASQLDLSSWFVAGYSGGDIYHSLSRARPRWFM

| SMILES | IC50 [1, 3] [µM] | EC50 [2, 4] [µM] | IC50 [1] [µM] | EC50 [2] [µM] |
| --- | --- | --- | --- | --- |
| COc1ccc2c(c1)C1CC1(S(=O)(=O)N1CC(O)C1)Cn1c-2c(C2CCCCC2)c2ccc(C(=O)O)cc21 (stereo not shown) | 0.02 to 1 | 0.02 to 1 | – | – |
| COc1ccc2c(c1)C1CC1(S(=O)(=O)N1C[C@@H](C)O[C@@H](C)C1)Cn1c-2c(C2CCCCC2)c2ccc(C(=O)NS(=O)(=O)N(C)C)cc21 (stereo partly shown) | 0.02 to 1 | 0.02 to 1 | – | – |
| CCN1CC2CC1CN2S(=O)(=O)C12CC1c1cc(OC)ccc1-c1c(C3CCCCC3)c3ccc(C(=O)NS(=O)(=O)C(C)C)cc3n1C2 (stereo not shown) | 0.02 to 1 | 0.02 to 1 | – | – |
| COc1ccc2c(c1)C1CC1(S(=O)(=O)N(C)CCN(C)C)Cn1c-2c(C2CCCCC2)c2ccc(C(=O)NS(=O)(=O)N(C)C)cc21 (stereo not shown) | 0.02 to 1 | 0.02 to 1 | – | – |
| COc1ccc2c(c1)C1CC1(S(=O)(=O)N1CCN3CCCC3C1)Cn1c-2c(C2CCCCC2)c2ccc(C(=O)NS(=O)(=O)N(C)C)cc21 (stereo not shown) | 0.02 to 1 | 0.02 to 1 | – | – |
| COc1ccc2c(c1)C1CC1(S(=O)(=O)N1C3CCC1CN(C)C3)Cn1c-2c(C2CCCCC2)c2ccc(C(=O)O)cc21 (stereo not shown) | – | – | 0.02 to 1 | 0.02 to 1 |
| COc1ccc2c(c1)C1CC1(S(=O)(=O)N1CCC1)Cn1c-2c(C2CCCCC2)c2ccc(C(=O)NS(=O)(=O)N3CCOCC3)cc21 (stereo not shown) | 0.02 to 1 | 0.02 to 1 | – | – |
| COc1ccc2c(c1)C1CC1(S(=O)(=O)N1C[C@@H](C)N(C)[C@@H](C)C1)Cn1c-2c(C2CCCCC2)c2ccc(C(=O)NS(=O)(=O)N3CCC3)cc21 (stereo partly shown) | 0.02 to 1 | 0.02 to 1 | – | – |
| COc1ccc2c(c1)C1CC1(S(=O)(=O)N(C)CC(=O)N1CCOCC1)Cn1c-2c(C2CCCCC2)c2ccc(C(=O)NS(=O)(=O)N(C)C)cc21 (stereo not shown) | 0.02 to 1 | 0.02 to 1 | – | – |
| CCS(=O)(=O)C12CC1c1ccccc1-c1c(C3CCCCC3)c3ccc(C(=O)NS(=O)(=O)N(C)C)cc3n1C2 (stereo not shown) | 0.02 to 1 | 0.02 to 1 | – | – |
| COc1ccc2c(c1)C1CC1(S(=O)(=O)N1C[C@@H](C)N(C)[C@@H](C)C1)Cn1c-2c(C2CCCCC2)c2ccc(C(=O)NS(=O)(=O)N3CCN(C)CC3)cc21 (stereo partly shown) | 0.02 to 1 | 0.02 to 1 | – | – |
| COc1ccc2c(c1)C1CC1(S(=O)(=O)N1C3CC1CN(C)C3)Cn1c-2c(C2CCCCC2)c2ccc(C(=O)NS(=O)(=O)C(C)C)cc21 (stereo not shown) | 0.02 to 1 | 0.02 to 1 | – | – |
| COc1ccc2c(c1)CC(S(=O)(=O)CCN(C)C)Cn1c-2c(C2CCCCC2)c2ccc(C(=O)NS(=O)(=O)N(C)C)cc21 (stereo not shown) | 0.02 to 1 | 0.02 to 1 | – | – |
| COc1ccc2c(c1)C1CC1(S(=O)(=O)N1CC(C)(O)C1)Cn1c-2c(C2CCCCC2)c2ccc(C(=O)O)cc21 (stereo not shown) | 0.02 to 1 | 0.02 to 1 | – | – |
